Results published in ChEMBL document CHEMBL5046296 (J Med Chem, 2022).
Values after ≈ are worked out from the molar mass of the structure shown.

Columns and labels:
[1] = Ratio of drug concentration in spinal cord to plasma in CCI induced thermal hyperalgesia Sprague-Dawley rat model at 1 mg/kg, po measured at 5.75 hrs post dose; format: ADME, organism-based
[2] = Tmax in rat at 3 mg/kg, po; format: ADME, organism-based; conditions: in vivo
[3] = molecular target: AP2-associated protein kinase 1 (Homo sapiens, UniProt Q2M2I8); test: Inhibition of GST-Xa tagged human AAK1 (30 to 330 residues) expresssed in bacteria using (5-FAM)-Aha-KEEQSQITSQVTGQIGWR-NH2 peptide as substrate incubated for 3 hrs in presence of ATP by electrophoretic analysis
[4] = molecular target: Cytochrome P450 (Homo sapiens, UniProt P04798+P05177+P05181+P08684+P10632+P10635+P11509+P11712+P13584+P20813+P20815+P20853+P24462+P24903+P33260+P33261+P51589+P78329+P98187+Q02928+Q08477+Q16678+Q16696+Q5TCH4+Q6VVX0+Q7Z449+Q8TAV3+Q96SQ9+Q9HB55); test: Metabolic stability in human liver microsomes assessed as CYP450-mediated metabolism by measuring parent compound remaining at 0.5 uM incubated for 10 mins in presence of NADPH by LC-MS/MS analysis; format: ADME; conditions: read-out: Stability
[5] = Metabolic stability in mouse liver microsomes assessed as CYP450-mediated metabolism by measuring parent compound remaining at 0.5 uM incubated for 10 mins in presence of NADPH by LC-MS/MS analysis; format: ADME; conditions: read-out: Stability
[6] = Protein binding in rat plasma assessed as unbound fraction at 10 uM measured after 5 hrs by LC-MS/MS analysis; format: ADME, cell-free
[7] = test system: Rattus norvegicus; test: Analgesic activity in streptozotocin induced diabetic peripheral neuropathic mechanical allodynia in overnight fasted Sprague-Dawley rat model assessed as reduction in pain response at 1 mg/kg, po measured after 5.5 hrs post treatment; format: functional; design: scale not given: the % may be the effect or the level left
[8] = Metabolic stability in mouse liver microsomes assessed as half life; format: ADME, Microsome
[9] = Metabolic stability in dog liver microsomes assessed as half life; format: ADME, Canis lupus familiaris, Microsome
[10] = molecular target: T1, Cytochrome P450 3A4 (Homo sapiens, UniProt P08684); test: Time dependent inhibition of CYP3A4 (unknown origin) using MDZ as substrate measured at 5 mins; format: ADME
[11] = molecular target: Voltage-gated inwardly rectifying potassium channel KCNH2 (Homo sapiens, UniProt Q12809); test: Inhibition of human ERG by patch clamp assay; format: toxicity
[12] = molecular target: Broad substrate specificity ATP-binding cassette transporter ABCG2 (Homo sapiens, UniProt Q9UNQ0); test: Inhibition of BCRP (unknown origin)
[13] = molecular target: Sodium-dependent noradrenaline transporter (Homo sapiens, UniProt P23975); test: Inhibition of NET (unknown origin); format: toxicity
[14] = Cmax in Sprague-Dawley rat plasma with CCI induced thermal hyperalgesia at 0.3 mg/kg, po measured at 5.75 hrs post dose; format: ADME, organism-based; design: route oral, dose 0.3 mg/kg, time 5.75 hrs
[15] = Drug concentration in Sprague-Dawley rat spinal cord with CCI induced thermal hyperalgesia at 0.3 mg/kg, po measured at 5.75 hrs post dose; format: ADME, organism-based; conditions: read-out: Ct
[16] = Drug concentration in Sprague-Dawley rat spinal cord with CCI induced thermal hyperalgesia at 1 mg/kg, po measured at 5.75 hrs post dose; format: ADME, organism-based; conditions: read-out: Ct
[17] = Drug uptake in Spinal cord of CCI induced thermal hyperalgesia Sprague-Dawley rat model assessed as spinal occupancy at 1 mg/kg, po measured at 5.75 hrs post dose in presence of [3H]BMT-046091; format: ADME, organism-based; conditions: in vivo
[18] = Cmax in overnight fasted Sprague-Dawley rat plasma with streptozotocin induced diabetic peripheral neuropathic mechanical allodynia at 0.1 mg/kg, po measured at 5.5 hrs post dose; format: ADME, organism-based; design: route oral, time 5.5 hrs, dose 0.1 mg/kg
[19] = Cmax in overnight fasted Sprague-Dawley rat plasma with streptozotocin induced diabetic peripheral neuropathic mechanical allodynia at 0.3 mg/kg, po measured at 5.5 hrs post dose; format: ADME, organism-based; design: route oral, time 5.5 hrs, dose 0.3 mg/kg
[20] = Drug concentration in overnight fasted Sprague-Dawley rat spinal cord with streptozotocin induced diabetic peripheral neuropathic mechanical allodynia at 0.3 mg/kg, po measured at 5.5 hrs post dose; format: ADME, organism-based; conditions: read-out: Ct
[21] = Ratio of drug concentration in spinal cord to plasma of overnight fasted Sprague-Dawley rat model with streptozotocin induced diabetic peripheral neuropathic mechanical allodynia at 0.1 mg/kg, po measured at 5.5 hrs post dose; format: ADME, organism-based
[22] = Ratio of drug concentration in spinal cord to plasma of overnight fasted Sprague-Dawley rat model with streptozotocin induced diabetic peripheral neuropathic mechanical allodynia at 0.3 mg/kg, po measured at 5.5 hrs post dose; format: ADME, organism-based
[23] = Cmax in naive Sprague-Dawley rat plasma at 3 mg/kg, po measured at 5.25 hrs post dose; format: ADME, organism-based; design: route oral, time 5.25 hrs, dose 3 mg/kg
[24] = Cmax in naive Sprague-Dawley rat plasma at 10 mg/kg, po measured at 5.25 hrs post dose; format: ADME, organism-based; design: route oral, dose 10 mg/kg, time 5.25 hrs
[25] = Drug concentration in naive Sprague-Dawley rat spinal cord at 30 mg/kg, po measured at 5.25 hrs post dose; format: ADME, organism-based; conditions: read-out: Ct
[26] = Ratio of drug concentration in spinal cord to plasma in Sprague-Dawley rat at 3 mg/kg, po measured at 5.25 hrs post dose; format: ADME, organism-based
[27] = Toxicity in naive Sprague-Dawley rat assessed as motor impairment at 3 to 30 mg/kg, po measured after 5 hrs by rotarod test; format: organism-based; conditions: in vivo, dose 3-30 mg/kg
[28] = AUC (infinity) in mouse at 3 mg/kg, po; format: ADME, organism-based; design: time infinity, route oral, dose 3 mg/kg; conditions: in vivo
[29] = AUC (infinity) in rat at 2 mg/kg, iv; format: ADME, organism-based; design: time infinity, route intravenous, dose 2 mg/kg; conditions: in vivo
[30] = AUC (infinity) in dog at 2 mg/kg, iv; format: ADME, organism-based, Canis lupus familiaris; design: time infinity, route intravenous, dose 2 mg/kg; conditions: in vivo
[31] = AUC (infinity) in dog at 3 mg/kg, po; format: ADME, organism-based, Canis lupus familiaris; design: route oral, time infinity, dose 3 mg/kg; conditions: in vivo
[32] = Apparent elimination half life in dog at 2 mg/kg, iv; format: ADME, organism-based, Canis lupus familiaris; conditions: in vivo, read-out: betat1/2(app) (converted)
[33] = Clearance in rat at 2 mg/kg, iv; format: ADME, organism-based; conditions: in vivo
[34] = Volume of distribution at steady state in rat at 2 mg/kg, iv; format: ADME, organism-based; conditions: in vivo, read-out: Vdss
[35] = Volume of distribution at steady state in dog at 2 mg/kg, iv; format: ADME, organism-based, Canis lupus familiaris; conditions: in vivo, read-out: Vdss
[36] = Volume of distribution at steady state in monkey at 2 mg/kg, iv; format: ADME, organism-based, Macaca mulatta; conditions: rhesus monkey, in vivo, read-out: Vdss
[37] = Oral bioavailability in mouse at 3 mg/kg; format: ADME, organism-based; conditions: in vivo
[38] = Oral bioavailability in monkey at 3 mg/kg; format: ADME, organism-based, Macaca mulatta; conditions: rhesus monkey, in vivo
[39] = molecular target: Cyclin-G-associated kinase (Homo sapiens, UniProt O14976); test: Inhibition of GAK (unknown origin)
[40] = Lipophilicity, log D of the compound at pH 7.4; format: physicochemical; conditions: buffer
[41] = Solubility of the compound at pH 1.2 using crystalline form of sample; format: physicochemical
[42] = Solubility of the compound at pH 6.5 using crystalline form of sample; format: physicochemical
[43] = Solubility of the compound in FeSSIF; format: physicochemical
[44] = Solubility of the compound in propylene glycol; format: physicochemical
[45] = Solubility of the compound in ethanol; format: physicochemical
[46] = molecular target: T1, Cytochrome P450 3A4; test: Time dependent inhibition of CYP3A4 (unknown origin) using TST as substrate measured at 5 mins; format: ADME

T1 sequence (P08684 whole entry): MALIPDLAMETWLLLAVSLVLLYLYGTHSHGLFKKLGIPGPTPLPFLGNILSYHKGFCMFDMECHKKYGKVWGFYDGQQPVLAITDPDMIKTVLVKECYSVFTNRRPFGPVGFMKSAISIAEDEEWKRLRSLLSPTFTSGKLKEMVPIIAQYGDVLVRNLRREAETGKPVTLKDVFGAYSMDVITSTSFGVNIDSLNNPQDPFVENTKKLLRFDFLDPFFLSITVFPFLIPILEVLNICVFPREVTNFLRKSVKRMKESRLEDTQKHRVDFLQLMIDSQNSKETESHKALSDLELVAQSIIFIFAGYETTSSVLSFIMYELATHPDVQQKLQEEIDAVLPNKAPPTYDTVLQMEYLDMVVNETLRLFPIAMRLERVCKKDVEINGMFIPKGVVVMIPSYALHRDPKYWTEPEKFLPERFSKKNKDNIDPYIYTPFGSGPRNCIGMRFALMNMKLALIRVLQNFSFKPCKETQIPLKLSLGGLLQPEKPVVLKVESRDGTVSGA
Cyclin-G-associated kinase, sequence (O14976 whole entry): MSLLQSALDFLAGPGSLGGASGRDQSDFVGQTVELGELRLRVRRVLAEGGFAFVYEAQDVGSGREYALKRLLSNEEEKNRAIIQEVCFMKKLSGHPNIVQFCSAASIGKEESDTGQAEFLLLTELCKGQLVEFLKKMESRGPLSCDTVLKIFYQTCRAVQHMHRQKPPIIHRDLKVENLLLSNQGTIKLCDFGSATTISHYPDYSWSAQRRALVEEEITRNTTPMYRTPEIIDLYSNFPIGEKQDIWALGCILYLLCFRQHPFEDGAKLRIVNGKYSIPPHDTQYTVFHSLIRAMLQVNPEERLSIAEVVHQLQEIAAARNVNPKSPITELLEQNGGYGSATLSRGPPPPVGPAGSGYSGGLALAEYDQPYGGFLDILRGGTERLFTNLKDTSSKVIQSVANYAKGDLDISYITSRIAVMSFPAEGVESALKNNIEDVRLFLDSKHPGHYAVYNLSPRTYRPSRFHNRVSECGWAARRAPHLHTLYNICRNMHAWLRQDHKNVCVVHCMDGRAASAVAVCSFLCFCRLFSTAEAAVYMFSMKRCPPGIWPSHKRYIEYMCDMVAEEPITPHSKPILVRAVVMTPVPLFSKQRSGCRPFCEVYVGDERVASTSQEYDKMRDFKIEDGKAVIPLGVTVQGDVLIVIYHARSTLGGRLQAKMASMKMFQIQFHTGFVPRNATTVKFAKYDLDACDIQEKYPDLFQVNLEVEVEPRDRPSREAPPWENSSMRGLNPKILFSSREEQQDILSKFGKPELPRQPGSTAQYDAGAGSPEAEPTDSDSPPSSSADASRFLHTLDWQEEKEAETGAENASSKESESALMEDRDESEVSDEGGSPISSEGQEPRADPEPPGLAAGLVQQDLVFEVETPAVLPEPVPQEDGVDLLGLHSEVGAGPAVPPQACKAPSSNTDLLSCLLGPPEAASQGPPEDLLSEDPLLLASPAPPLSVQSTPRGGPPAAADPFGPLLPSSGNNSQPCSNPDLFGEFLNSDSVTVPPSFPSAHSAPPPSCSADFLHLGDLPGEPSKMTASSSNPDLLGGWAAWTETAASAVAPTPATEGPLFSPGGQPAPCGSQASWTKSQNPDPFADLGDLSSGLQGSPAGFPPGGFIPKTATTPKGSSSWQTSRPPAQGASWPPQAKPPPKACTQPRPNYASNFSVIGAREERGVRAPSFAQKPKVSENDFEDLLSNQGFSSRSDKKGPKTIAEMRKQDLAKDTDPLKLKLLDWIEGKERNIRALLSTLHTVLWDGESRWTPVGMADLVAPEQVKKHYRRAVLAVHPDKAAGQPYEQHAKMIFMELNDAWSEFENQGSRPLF
Sodium-dependent noradrenaline transporter, sequence (P23975 whole entry): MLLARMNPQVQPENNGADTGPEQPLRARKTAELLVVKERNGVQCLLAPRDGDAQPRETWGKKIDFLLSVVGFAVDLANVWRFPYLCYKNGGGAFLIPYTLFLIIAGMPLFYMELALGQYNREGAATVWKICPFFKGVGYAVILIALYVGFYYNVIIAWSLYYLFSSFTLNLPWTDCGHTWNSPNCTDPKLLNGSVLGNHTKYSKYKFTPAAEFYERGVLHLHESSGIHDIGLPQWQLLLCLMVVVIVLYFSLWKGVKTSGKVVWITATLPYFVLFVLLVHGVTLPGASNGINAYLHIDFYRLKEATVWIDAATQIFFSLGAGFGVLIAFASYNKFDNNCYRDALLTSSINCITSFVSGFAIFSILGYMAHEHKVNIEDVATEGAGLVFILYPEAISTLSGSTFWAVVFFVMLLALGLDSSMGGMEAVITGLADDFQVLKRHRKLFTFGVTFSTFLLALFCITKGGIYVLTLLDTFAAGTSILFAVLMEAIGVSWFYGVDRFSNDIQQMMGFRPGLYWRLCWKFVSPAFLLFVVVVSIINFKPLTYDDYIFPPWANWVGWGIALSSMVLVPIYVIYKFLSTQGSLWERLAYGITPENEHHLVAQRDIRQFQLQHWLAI
Voltage-gated inwardly rectifying potassium channel KCNH2, sequence (Q12809 whole entry): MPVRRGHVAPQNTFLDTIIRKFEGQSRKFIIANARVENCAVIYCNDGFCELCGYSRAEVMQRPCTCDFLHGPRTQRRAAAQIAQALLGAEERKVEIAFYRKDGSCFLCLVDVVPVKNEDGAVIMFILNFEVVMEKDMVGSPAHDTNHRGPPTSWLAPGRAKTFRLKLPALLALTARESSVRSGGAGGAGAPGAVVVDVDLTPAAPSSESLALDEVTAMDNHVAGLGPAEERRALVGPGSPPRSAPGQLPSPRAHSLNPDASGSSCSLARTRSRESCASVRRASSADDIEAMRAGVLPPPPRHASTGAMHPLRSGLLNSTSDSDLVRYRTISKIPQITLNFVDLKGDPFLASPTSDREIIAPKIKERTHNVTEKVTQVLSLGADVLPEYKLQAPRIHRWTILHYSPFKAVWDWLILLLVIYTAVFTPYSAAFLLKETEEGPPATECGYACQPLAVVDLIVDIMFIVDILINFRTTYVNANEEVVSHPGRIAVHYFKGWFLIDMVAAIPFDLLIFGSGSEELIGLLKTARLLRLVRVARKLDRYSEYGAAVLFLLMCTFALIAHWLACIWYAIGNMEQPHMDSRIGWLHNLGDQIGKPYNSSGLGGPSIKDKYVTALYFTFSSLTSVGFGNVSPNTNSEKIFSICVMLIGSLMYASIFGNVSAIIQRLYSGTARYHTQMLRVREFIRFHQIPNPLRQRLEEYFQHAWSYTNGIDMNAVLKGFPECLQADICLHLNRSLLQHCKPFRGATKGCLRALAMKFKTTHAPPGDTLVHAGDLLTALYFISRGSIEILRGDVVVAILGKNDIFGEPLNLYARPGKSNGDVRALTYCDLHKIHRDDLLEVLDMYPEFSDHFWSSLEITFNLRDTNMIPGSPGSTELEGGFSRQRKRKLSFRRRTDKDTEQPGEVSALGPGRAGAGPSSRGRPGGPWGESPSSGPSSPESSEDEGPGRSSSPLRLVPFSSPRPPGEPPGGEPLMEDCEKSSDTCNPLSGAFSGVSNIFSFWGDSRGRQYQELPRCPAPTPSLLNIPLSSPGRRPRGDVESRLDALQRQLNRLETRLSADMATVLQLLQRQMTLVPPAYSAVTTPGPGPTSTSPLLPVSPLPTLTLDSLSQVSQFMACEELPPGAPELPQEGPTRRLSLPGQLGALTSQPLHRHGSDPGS
AP2-associated protein kinase 1, sequence (Q2M2I8 whole entry, the tested form may be a part): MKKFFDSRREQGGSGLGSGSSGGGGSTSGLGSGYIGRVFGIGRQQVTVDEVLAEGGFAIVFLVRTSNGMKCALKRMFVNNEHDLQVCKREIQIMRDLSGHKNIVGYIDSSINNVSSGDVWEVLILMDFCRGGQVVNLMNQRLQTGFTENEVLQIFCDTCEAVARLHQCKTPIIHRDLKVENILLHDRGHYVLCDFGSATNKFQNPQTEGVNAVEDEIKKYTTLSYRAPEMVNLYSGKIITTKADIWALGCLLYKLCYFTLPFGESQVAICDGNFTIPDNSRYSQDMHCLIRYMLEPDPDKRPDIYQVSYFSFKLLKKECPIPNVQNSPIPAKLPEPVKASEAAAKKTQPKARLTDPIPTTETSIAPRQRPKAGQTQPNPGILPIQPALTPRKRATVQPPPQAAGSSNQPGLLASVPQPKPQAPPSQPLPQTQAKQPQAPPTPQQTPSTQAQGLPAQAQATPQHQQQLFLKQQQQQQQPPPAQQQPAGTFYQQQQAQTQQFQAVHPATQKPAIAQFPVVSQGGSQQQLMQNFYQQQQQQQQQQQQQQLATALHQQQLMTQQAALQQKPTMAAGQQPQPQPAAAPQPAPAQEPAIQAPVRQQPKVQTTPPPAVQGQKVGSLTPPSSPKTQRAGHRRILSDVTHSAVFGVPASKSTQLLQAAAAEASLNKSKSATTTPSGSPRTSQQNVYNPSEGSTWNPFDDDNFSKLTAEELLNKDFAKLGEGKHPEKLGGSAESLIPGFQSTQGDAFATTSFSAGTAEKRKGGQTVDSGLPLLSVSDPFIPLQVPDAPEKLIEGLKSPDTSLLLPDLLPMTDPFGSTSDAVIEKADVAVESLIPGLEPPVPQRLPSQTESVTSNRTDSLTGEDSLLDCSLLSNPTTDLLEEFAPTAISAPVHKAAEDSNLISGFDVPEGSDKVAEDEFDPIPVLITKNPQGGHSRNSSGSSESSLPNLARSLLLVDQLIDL

## CC(C)C[C@](C)(N)COc1ccc(-c2ccnc(C(F)F)c2)nc1C(F)F [PILAVAPADIN]
[1]
  Kp at 5.75 h: 19
[2]
  Tmax: 3 h
[3]
  IC50: 2 nM
[4]
  remaining at 10 min, 0.5 µM: 87%
[5]
  remaining at 10 min, 0.5 µM: 86%
[6]
  fraction unbound at 5 h, 10 µM: 0.1
[7]
  Activity: >60%
[8]
  half-life: > 2 h
[9]
  half-life: 0.5 h
[10]
  IC50: > 40000 nM
[11]
  IC50: 1400 nM
[12]
  IC50: 5400 nM
[13]
  IC50: 390 nM
[14]
  Cmax: 19 nM
[15]
  concentration at 5.75 h: 431 nM
[16]
  concentration at 5.75 h: 1220 nM
[17]
  Occ: 96%
[18]
  Cmax: 6 nM
[19]
  Cmax: 25 nM
[20]
  concentration at 5.5 h: 206 nM
[21]
  Kp at 5.5 h: 13
[22]
  Kp at 5.5 h: 8
[23]
  Cmax: 200 nM
[24]
  Cmax: 780 nM
[25]
  concentration at 5.25 h: 32600 nM
[26]
  Kp at 5.25 h: 19
[27]
  Activity: Non-Toxic
[28]
  AUC(0-inf): 5780 ng·h/mL
[29]
  AUC(0-inf): 1180 ng·h/mL
[30]
  AUC(0-inf): 1210 ng·h/mL
[31]
  AUC(0-inf): 1630 ng·h/mL
[32]
  half-life: 4.8 h
[33]
  clearance: 28.5 mL/min/kg
[34]
  Vd: 19.6 L/kg
[35]
  Vd: 11.8 L/kg
[36]
  Vd: 20.6 L/kg
[37]
  bioavailability: 100%
[38]
  bioavailability: 11%
[39]
  IC50: 800 nM
[40]
  logD: 1.48
[41]
  solubility thermodynamic: 2000 µg/mL (≈ 5.19 mM)
[42]
  solubility thermodynamic: 440 µg/mL (≈ 1.14 mM)
[43]
  solubility: 840 µg/mL (≈ 2.18 mM)
[44]
  solubility: > 50000 µg/mL
[45]
  solubility: > 50000 µg/mL
[46]
  IC50: > 40000 nM
